Read-outs that look alike come from different tables or passages of the source.
What was measured:
[1] = target: T1, human taurine transporter (HsTauT) (Homo sapiens, UniProt P31641); test: [3H]taurine uptake by HEK293 cells stably expressing the human taurine transporter; settings: 0.1 μM [3H]taurine, 10 min
T1 sequence (P31641 1-620): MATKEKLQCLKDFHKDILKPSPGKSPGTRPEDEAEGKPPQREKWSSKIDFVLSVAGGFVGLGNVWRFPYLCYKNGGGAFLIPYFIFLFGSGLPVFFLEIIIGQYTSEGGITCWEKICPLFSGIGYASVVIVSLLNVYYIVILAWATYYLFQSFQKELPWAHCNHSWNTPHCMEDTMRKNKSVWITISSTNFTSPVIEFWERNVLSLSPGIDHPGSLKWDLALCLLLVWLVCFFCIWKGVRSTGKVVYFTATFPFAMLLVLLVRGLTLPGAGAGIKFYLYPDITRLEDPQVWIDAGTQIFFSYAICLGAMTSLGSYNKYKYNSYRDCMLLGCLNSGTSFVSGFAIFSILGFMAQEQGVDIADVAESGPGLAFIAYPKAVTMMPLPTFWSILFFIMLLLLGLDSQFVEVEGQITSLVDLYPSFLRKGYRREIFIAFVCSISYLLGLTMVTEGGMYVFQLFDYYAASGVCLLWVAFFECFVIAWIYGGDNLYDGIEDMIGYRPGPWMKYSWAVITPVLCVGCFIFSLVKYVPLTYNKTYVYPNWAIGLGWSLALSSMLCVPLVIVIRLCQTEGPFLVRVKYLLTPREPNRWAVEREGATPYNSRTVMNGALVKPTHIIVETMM
Protocol: (§1) Human embryonic kidney-293 (HEK293 (ATCC CRL-1573, LGC standards Wesel, Germany)) cells, were grown in Dulbecco`s modified Eagle medium (DMEM) supplemented with 10% fetal bovine serum (FCS Nuaille, France), 100 units/ml penicillin and 100 μg/ml streptomycin at 37°C and with 5% CO2 in a humidified incubator. Cells were transfected with plasmids encoding fluorescently tagged or untagged versions of F. hepatica (FhTauT) and H. sapiens (HsTauT) taurine transporter using Jet Prime transfection reagent (Polyplus-transfection, France). To generate monoclonal cell lines stably expressing the transporters, transfected cells were subjected to and selected with the concentration of 0.2 mg/ml geneticin (G418) for 10 days. Surviving cells forming colonies were separated and analyzed for membrane localization of transporters and transport of taurine. After the selection process cells were kept at 50 μg/ml G418 to keep the selection pressure.
(§2) For saturation uptake experiments, cells were plated the day before the experiment at a density of about 50,000 cells/well onto poly (D-lysine)-coated 48-well culture plates (CytoOne, USA). On the day of the experiment, cells were washed with prewarmed Krebs-HEPES buffer twice (KHB) (120 mM NaCl, 3 mM KCl, 2 mM CaCl2, 2 mM MgCl2, 20 mM glucose, 10 mM HEPES, pH 7.3). Then, cells were incubated in KHB containing tracer amounts (0.1 μM) of [^3H]taurine, (19.1 Ci/mmol) (Perkin Elmer, USA) together with increasing concentrations of non-labeled taurine 10 min. The reaction was terminated after 10 minutes by removing the medium followed by rapid rinsing of cells with ice-cold assay buffer. Subsequently, cells were lysed with 0.5 ml of 1% sodium dodecyl sulfate (SDS) and transferred into scintillation vials for liquid scintillation counting. Non-specific uptake was determined by incubating cells in the presence of the blocker β-alanine (100 mM) before and during the experiment and subtracted from uptake values. Data were fit to a Michaelis-Menten equation.
(§3) Chloride-free KHB was prepared to examine the chloride dependence of both, FhTauT and HsTauT using acetate salts instead of chloride salts. Likewise, NaCl was replaced by choline chloride to examine the sodium requirement. Uptake experiments were performed as described above using 0.1 μM [^3H]taurine in sodium- and chloride-free modified KHB, respectively, mixed with increasing amounts of NaCl containing KHB thereby varying Na^+ and respectively Cl^- concentration from 0–120 mM. The inhibition experiments were performed in analogous manner with 0.1 μM [^3H]taurine and the logarithmically spaced concentrations of inhibitors.

[2] = target: T2, F. hepatica taurine transporter (FhTauT) (Fasciola hepatica, UniProt A0A2R4LGM2); test: cell-based
T2 sequence (A0A2R4LGM2 1-647): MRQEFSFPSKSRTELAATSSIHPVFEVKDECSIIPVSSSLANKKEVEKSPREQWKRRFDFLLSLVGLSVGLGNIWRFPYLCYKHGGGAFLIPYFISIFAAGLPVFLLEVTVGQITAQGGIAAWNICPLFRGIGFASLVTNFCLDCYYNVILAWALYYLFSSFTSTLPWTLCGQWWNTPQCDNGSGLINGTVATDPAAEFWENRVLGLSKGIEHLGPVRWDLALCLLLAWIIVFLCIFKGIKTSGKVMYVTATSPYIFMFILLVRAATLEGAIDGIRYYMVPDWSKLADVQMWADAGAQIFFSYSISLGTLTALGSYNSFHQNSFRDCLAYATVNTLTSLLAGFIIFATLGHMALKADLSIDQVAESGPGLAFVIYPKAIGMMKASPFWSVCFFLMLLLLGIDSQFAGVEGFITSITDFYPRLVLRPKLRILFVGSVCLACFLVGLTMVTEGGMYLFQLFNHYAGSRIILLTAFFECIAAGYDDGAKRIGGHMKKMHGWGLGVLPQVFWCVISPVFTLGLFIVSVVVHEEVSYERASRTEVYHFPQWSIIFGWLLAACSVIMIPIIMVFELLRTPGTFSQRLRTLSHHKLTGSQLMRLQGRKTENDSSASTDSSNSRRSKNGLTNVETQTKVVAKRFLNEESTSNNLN
Protocol: as §1, §2, §3

taurine transporter = system: taurine transporter; design: method as in PMID 1435737; settings: 100 μM β-alanine; cited from earlier work
[3] = target: T2, F. hepatica taurine transporter (FhTauT); test: [3H]GABA uptake by HEK293 cells expressing the F. hepatica taurine transporter; assay type: cell-based; settings: 0.3 μM to 3 mM [3H]GABA, three minutes
Protocol: (§4) GABA uptake was assessed by incubating HEK293 cells (10^5/ well) stably expressing the human GABA-transporter-1 (HsGAT1, diamonds), the F. hepatica taurine transporter (FhTauT, circles) and the human taurine transporter (HsTauT, triangles) in KHB containing concentrations of [^3H]GABA covering the range of 0.3 μM to 3 mM for three minutes. The amount of labeled [^3H]GABA was kept constant and the specific activity was progressively diluted by the addition of unlabeled GABA (from 9 Ci/mmol to 9 Ci/mol). The reaction was stopped by the addition of ice-cold KHB followed by three rapid washes. Cells were detached and the accumulated radioactivity was determined by liquid scintillation counting.
(§5) Supplementary file pntd.0006428.s004.tif: S4 Fig [^3H]GABA uptake by the human GABA-transporter-1, the F. hepatica taurine transporter and the human taurine transporter. HEK293 cells (10^5/ well) stably expressing the human GABA-transporter-1 (HsGAT1, diamonds), the F. hepatica taurine transporter (FhTauT, circles) and the human taurine transporter (HsTauT, triangles) were incubated in the presence of the indicated concentrations of [^3H]GABA. The specific activity was progressively diluted by addition of unlabeled GABA (from 9 Ci/mmol to 9 Ci/mol). After three minutes the reaction was stopped and the accumulated radioactivity was determined by liquid scintillation counting. […]

[4] = system: taurine transporter (Slc6a6/TauT); settings: read-out: reported KM for GABA; cited from earlier work
[5] = target: T1, human taurine transporter (HsTauT); test: [3H]GABA uptake by HEK293 cells expressing the human taurine transporter; assay type: cell-based; design: expressed in transfected cells; settings: 0.3 μM to 3 mM [3H]GABA, three minutes
Protocol: as §4, §5

Row | SMILES | IC50 ([1]; IC50 for inhibition of [3H]taurine uptake) | IC50 [2] | affinity lower than that of taurine [2] | less potent in inhibiting the F. hepatica than the human transporter ([2]; human, hek293 cells) | inhibition of uptake (taurine transporter) | IC50 ([1]; read-out: IC50 for inhibition of [3H]taurine uptake) | uptake of [3H]GABA [3] | uptake of [3H]GABA ([3]; listed as [^3H]GABA) | less potent in inhibiting the F. hepatica than the human transporter [2] | affinity lower than that of taurine ([2]; alternative substrates vs taurine) | IC50 ([2]; read-out: IC50 for inhibition of [3H]taurine uptake, 0.1 μM [3H]taurine, 10 min) | Km [4] | uptake of [3H]GABA [5]
1 | NCCC(=O)O [β-alanine] | 132 ± 54 µM | 713 ± 260 µM | about 50 fold | ~5 fold | about 50% | – | – | – | – | – | – | – | –
2 | NCCCC(=O)O [GABA] | – | – | – | – | – | 1600 ± 500 µM | not of GABA | failed to detect any uptake | about 3 fold | ~350 fold | 5600 ± 900 µM | 1460 µM | failed to detect any uptake
